Several values for one entry are separate records, joined by “and”; a condition that tells them apart may be missing. Equal values may be shown once. Read-outs that look alike come from different tables or passages of the source.
Tests used:
[1] = test system: mice; settings: cited from earlier work
[2] = test system: H-Meso-1; assay: Mesothelioma xenograft model (H-Meso-1) in SCID mice; format: in vivo; settings: thirty-one days following treatment; docetaxel 10 mg/kg intraperitoneally daily Mon-Fri, SDX-102 50 mg/kg osmotic pump; start 100 mm^3; control 1272
[3] = physchem; format: physicochemical
Description: The solution was stirred on a stir plate at room temperature and the pH was adjusted by adding 20 microliter (μL) aliquots of 1N NaOH. After the addition of each aliquot, the resulting pH was measured potentiometrically and the results were recorded. The results of the titration appear in FIG. 1. The solution was also visually inspected during the course of the titration experiment to observe full dissolution of the alanosine.

[4] = test system: PANC-1; assay: Docetaxel, 5-FU, SDX-102 alone or combined, MTT/MTS cytotoxicity (Example 4); format: cell-based; settings: Homo sapiens; PANC-1, Pancreatic, single agent, MTT 72 hours
[5] = Temperature and pH effects on stability (5 days at 5° C. or 80° C.); format: physicochemical; settings: for osmolality: about 20 mg/mL
Description: Stability studies were then performed at different pHs. […] The pH of the solution was then adjusted in increments of 0.5 using 1N NaOH. Stability measurements of two duplicate samples were taken at each increment, beginning at pH 6.5 up through pH 9.0, and one sample was taken at pH 12.2. One set of samples was stored at 5° C., the other at 80° C., for five days, after which they were analyzed for pH, physical appearance, osmolality, and impurities. […] Here, impurities were determined by reverse phase HPLC as described herein.

[6] = test system: NCI-H292; assay: Docetaxel, 5-FU, SDX-102 alone or combined, MTT/MTS cytotoxicity (Example 4); format: cell-based; settings: Homo sapiens; NCI-H292, NSCLC, single agent, MTT 72 hours
[7] = test system: BxPC3; assay: Intracellular ATP levels (Cell-Titer Glow); format: cell-based; settings: Homo sapiens, BXPC-3, 72 h; BxPC3, Pancreatic, MTAP Negative; 3 day treatment
Description: (§1) MTAP status was determined using immunoblot analyses and correlated with the ability of an MTA analog to rescue ATP levels in cell lines treated with SDX-102. ATP levels were measured using Cell-Titer Glow™ (Promega) after a 3 day treatment with titrated concentrations of either SDX-102 or pemetrexed.

[8] = test system: A-594; assay: Intracellular ATP levels (Cell-Titer Glow); format: cell-based; settings: 72 h; A-594, NSCLC, MTAP Negative; 3 day treatment
Description: as §1

[9] = test system: NCI-H2452; assay: Intracellular ATP levels (Cell-Titer Glow); format: cell-based; settings: Homo sapiens, 72 h; NCI-H2452, Mesothelioma, MTAP Negative; 3 day treatment; read-out: ATP IC50
Description: as §1

[10] = test system: A-427; assay: Cell viability MTT assay (Example 3); format: cell-based; settings: Homo sapiens, 72 h; A-427, NSCLC, MTAP Positive; 3 days
[11] = Cell viability MTT assay (Example 3); format: cell-based; settings: 72 h; A-594, NSCLC, MTAP Negative; 3 days
[12] = test system: A549; assay: Docetaxel, 5-FU, SDX-102 alone or combined, MTT/MTS cytotoxicity (Example 4); format: cell-based; settings: Homo sapiens; A549, NSCLC, single agent, MTT 72 hours
[13] = test system: NCI-H2452; assay: as above; format: cell-based; settings: Homo sapiens; NCI-H2452, Mesothelioma, single agent, MTT 72 hours
[14] = Chirality analysis: conversion of L-alanosine to D-alanosine (chiral HPLC); format: physicochemical
Description: The following HPLC procedure was used to separate the L- and D-enantiomers of alanosine. The HPLC system (Agilent 1100) employed a 4.6 mm×150 mm column (Phenomenex) containing 5 μm particles (Chirex 3126, (D)-penicillamine) as the stationary phase. The system was equipped with both UV and polarimeter detectors. The UV detector was set to 254 nm to monitor products being eluted from the column, while the polarimeter detector was set to 670 nm. The eluent was 2 mM CuSO4/MeOH 70-30. The flow rate was 1.7 mL/min. at a pressure of 200 bar. For each run, a 100 μL sample containing 0.5 mg/mL in 2 mM CuSO4 was injected onto the column. […] To reverse the elution order, (L)-penicillamine could be used.

[15] = test system: BxPC3; assay: Cell viability MTT assay (Example 3); format: cell-based; settings: Homo sapiens, BXPC-3, 72 h; BxPC3, Pancreatic, MTAP Negative; 3 days
[16] = t1 yr., pH 7.5, 25° C., listed as L
[17] = t1 yr., pH 8.5, 25° C., listed as L
[18] = t6 mo., pH 8.5, 25° C., listed as L

## NC(CN(O)N=O)C(=O)O [L-alanosine, L(−)-2-amino-3-nitrosohydroxylaminopropionic acid]
[1]; administered intraperitoneally
  LD50: 600 mg/kg
[1]; given intravenously
  LD50: 300 mg/kg
[2]
  mean tumor volume: 1035 mm^3
[3]
  solubility in water: poor solubility
[3]; free base, approx. 20 mg/mL in water
  pH that must be exceeded for full dissolution: exceeded 6.2
[3]; pKa (first)
  pKa: ~5.5
[3]; pKa (second)
  pKa: ~8.5
[4]
  IC50: 10000 ± 5000 nM
[5]; 80° C. five days, pH 6.5-12.2, HPLC
  impurities as a function of pH: inverse relationship between the amount of impurities and pH
[5]; pH 6.5, stored at 5° C. five days
  osmolality: 225 mOsm
[5]; pH 6.5, stored at 80° C. five days
  osmolality: 247 mOsm
[5]; pH 8.0, stored at 5° C. five days
  osmolality: 272 mOsm
[5]; pH 8.0, stored at 80° C. five days
  osmolality: 273 mOsm
[6]
  IC50: 200 ± 60 nM
[7]
  IC50: 600 nM
[8]
  IC50: 300 nM
[9]
  IC50: 400 nM
[10]
  IC50: 3300 nM
[11]
  IC50: 400 nM
[12]
  IC50: 300 ± 100 nM
[13]
  IC50: 1000 ± 500 nM
[14]; after one year at 5° C., pH 7.5 or 8.5
  conversion to D-alanosine: no conversion to D-alanosine
[14]; storage at 25° C.
  conversion to D-alanosine at pH 8.5 compared to pH 7.5: 5-10 times
[14]; t0
  % Total Peak Area L: 100%
[14]; t1 yr., pH 7.5, 5° C.
  % Total Peak Area L: 100%
[14]; [16]
  % Total Peak Area D: 0.99% and 0.78%
  % Total Peak Area L: 99.01% and 99.22%
[14]; t1 yr., pH 8.5, 5° C.
  % Total Peak Area L: 100%
[14]; [17]
  % Total Peak Area D: 4.45% and 4.56%
  % Total Peak Area L: 95.55% and 95.44%
[14]; t6 mo., pH 8.5, 5° C.
  % Total Peak Area L: 100%
[14]; [18]
  % Total Peak Area D: 2.03% and 2.04%
  % Total Peak Area L: 97.97% and 97.96%
[15]
  IC50: 6000 nM
